Non-standard residues stand in square brackets, D forms with d. Residues, ends and D or L forms follow the SMILES beside them. *: point of attachment. X1 = O=C(O)c1cc(C(=O)*)ccc1-c1c2ccc(=O)cc-2oc2cc(O)ccc12; Propyl(3-guanidino) = N=C(N)NCCC*; Hyp = O=C(O)[C@@H]1C[C@@H](O)CN1; Isobutyl = CC(C)C*

Data set [1] concerns MCF7. Put plainly: Cellular uptake in MCF7 cells assessed as mean fluorescence at 15 uM after 6 hrs. The format is ADME, cell-based. Particulars: human, mcf7, 6 h; call rule not given here.
Data set [2] relates to MCF7. Put plainly: Cellular uptake in MCF7 cells assessed as mean fluorescence at 1 uM after 6 hrs. The data set is classed as ADME, cell-based. Particulars: human, mcf7, 6 h.
For data set [3], the system named is MCF7. The experiment in a line: Cellular uptake in MCF7 cells assessed as mean fluorescence at 10 uM after 6 hrs. The data set is classed as ADME, cell-based. Particulars: human, mcf7, 6 h.
Data set [4] deals with MCF7. The experiment in a line: Decrease in cellular uptake in MCF7 cells at 15 uM in presence of sodium azideafter 6 hrs by flow cytometry. The format is ADME, cell-based. Also noted: scale not given: the % may be the effect or the level left. The conditions noted are these: human, mcf7, 6 h. Background: Flow cytometry measures light scatter and fluorescence of single cells or particles in a stream.

The nature of data set [5]: Cytotoxicity against MCF7 cells assessed as cell viability at 15 uM after 24 hrs by flow cytometry. The format is cell-based. Particulars: human, read-out: Activity.
The subject of data set [6] is MCF7. The experiment in a line: Decrease in cellular uptake in MCF7 cells at 15 uM at 37 degC after 6 hrs. The data set is classed as ADME, cell-based. Also on record: scale not given: the % may be the effect or the level left. Particulars: human, mcf7, 6 h.
For data set [7], the system named is MCF7. The experiment in a line: Cellular uptake in MCF7 cells assessed as mean fluorescence at 5 uM after 6 hrs. The data set is classed as ADME, cell-based. The conditions noted are these: human, mcf7, 6 h.
In data set [8] the test system is MCF7. Put plainly: Decrease in cellular uptake in MCF7 cells at 15 uM at 4 degC after 6 hrs. Also on record: scale not given: the % may be the effect or the level left. Particulars: human, mcf7, 6 h. The format is ADME, cell-based.

`CC(C)CO[C@@H]1C[C@@H](C(=O)N2C[C@H](OCCCNC(=N)N)C[C@H]2C(=O)N2C[C@H](OCCCNC(=N)N)C[C@H]2C(=O)N2C[C@H](OCC(C)C)C[C@H]2C(=O)N2C[C@H](OCCCNC(=N)N)C[C@H]2C(=O)N2C[C@H](OCCCNC(=N)N)C[C@H]2C(=O)N2C[C@H](OCC(C)C)C[C@H]2C(=O)N2C[C@H](OCCCNC(=N)N)C[C@H]2C(=O)N2C[C@H](OCCCNC(=N)N)C[C@H]2C(=O)N2C[C@H](OCC(C)C)C[C@H]2C(N)=O)N(C(=O)CNC(=O)c2ccc(-c3c4ccc(=O)cc-4oc4cc(O)ccc34)c(C(=O)O)c2)C1` (X1-G[Hyp](Isobutyl)[Hyp](Propyl(3-guanidino))[Hyp](Propyl(3-guanidino))[Hyp](Isobutyl)[Hyp](Propyl(3-guanidino))[Hyp](Propyl(3-guanidino))[Hyp](Isobutyl)[Hyp](Propyl(3-guanidino))[Hyp](Propyl(3-guanidino))[Hyp](Isobutyl)-NH2): the Activity is given as 63 a.u in the data set with MCF7 [1]; 2 a.u in the data set on MCF7 [2]; 15 a.u with MCF7 [3]; “Not Active” in the data set with MCF7 [4]; 89% in the data set on MCF7 [6]; 7 a.u in the data set on MCF7 [7]. Further, in the data set with MCF7 [8], the Activity stood at 82%. Moreover, the viability at 24 h, 15 µM in data set [5] turned out to be 80%.
`CC(C)CO[C@@H]1C[C@@H](C(=O)N2C[C@H](OCCCNC(=N)N)C[C@H]2C(=O)N2C[C@H](OCCCNC(=N)N)C[C@H]2C(=O)N2C[C@H](OCC(C)C)C[C@H]2C(=O)N2C[C@H](OCCCNC(=N)N)C[C@H]2C(=O)N2C[C@H](OCCCNC(=N)N)C[C@H]2C(=O)N2C[C@H](OCC(C)C)C[C@H]2C(=O)N2C[C@H](OCCCNC(=N)N)C[C@H]2C(=O)N2C[C@H](OCCCNC(=N)N)C[C@H]2C(=O)N2C[C@H](OCC(C)C)C[C@H]2C(=O)N2C[C@H](OCCCNC(=N)N)C[C@H]2C(=O)N2C[C@H](OCCCNC(=N)N)C[C@H]2C(=O)N2C[C@H](OCC(C)C)C[C@H]2C(N)=O)N(C(=O)CNC(=O)c2ccc(-c3c4ccc(=O)cc-4oc4cc(O)ccc34)c(C(=O)O)c2)C1` (X1-G[Hyp](Isobutyl)[Hyp](Propyl(3-guanidino))[Hyp](Propyl(3-guanidino))[Hyp](Isobutyl)[Hyp](Propyl(3-guanidino))[Hyp](Propyl(3-guanidino))[Hyp](Isobutyl)[Hyp](Propyl(3-guanidino))[Hyp](Propyl(3-guanidino))[Hyp](Isobutyl)[Hyp](Propyl(3-guanidino))[Hyp](Propyl(3-guanidino))[Hyp](Isobutyl)-NH2): the Activity in the data set with MCF7 [1] stood at 420 a.u; with MCF7 [2] it was 4 a.u; in the data set with MCF7 [3], 177 a.u; with MCF7 [4], 19%; with MCF7 [6] it was 89%; with MCF7 [7] it was 30 a.u. Further, the Activity in the data set with MCF7 [8] was found to be 82%. Besides, the viability at 24 h, 15 µM in data set [5] turned out to be 80%.
